According to patent US7906655B2, “Hepatitis C virus inhibitors” (Bristol-Myers Squibb Company, priority 2008, dated 2011):
pEC50: −log10 of the molar value.

Test system: HCV 1b genotype
Assay: HCV Replicon assay (HCV-neo replicon cells, wild-type)
Format: cell-based
Settings: HCV 1b genotype replicon; class symbols
Experimental: An HCV Replicon assay was utilized in the present disclosure, and was prepared, conducted and validated as described in commonly owned PCT/US2006/022197 and in O'Boyle et. al. Antimicrob Agents Chemother. 2005 April; 49 (4):1346-53. Assay methods incorporating luciferase reporters have also been used as described (Apath.com).
HCV-neo replicon cells and replicon cells containing mutations in the NS5A region were used to test the currently described family of compounds. The compounds were determined to have more than 10-fold less inhibitory activity on cells containing mutations than wild-type cells. Thus, the compounds of the present disclosure can be effective in inhibiting the function of the HCV NS5A protein and are understood to be as effective in combinations as previously described in application PCT/US2006/022197 and commonly owned WO/O4014852. Further, the compounds of the present disclosure can be effective against the HCV 1b genotype. It should also be understood that the compounds of the present disclosure can inhibit multiple genotypes of HCV. […] In one embodiment, compounds of the present disclosure are inhibitory versus 1a, 1b, 2a, 2b, 3a, 4a, and 5a genotypes.

First: O=C(Cc1ccccn1)N1CCC[C@H]1c1nc2cc(C#Cc3ccc4[nH]c([C@@H]5CCCN5C(=O)Cc5ccccn5)nc4c3)ccc2[nH]1 [Example M7, 5,5′-(1,2-ethynediyl)bis(2-((2S)-1-(2-pyridinylacetyl)-2-pyrrolidinyl)-1H-benzimidazole)]
Second: CCc1ccccc1C(=O)N1CCC[C@H]1c1nc2ccc(C#Cc3ccc4[nH]c([C@@H]5CCCN5C(=O)[C@H]5CCCO5)nc4c3)cc2[nH]1 [Example M54.2]
The pEC50 of the first is higher: over 8.34 for the first, 6.00 to 7.00 for the second.

`C[C@@H](NC(=O)OCc1ccccc1)c1nc2cc(CCc3ccc4nc([C@@H](C)NC(=O)OCc5ccccc5)[nH]c4c3)ccc2[nH]1` [OL6, benzyl ((1R)-1-(5-(2-(2-(1R)-1-(((benzyloxy)carbonyl)amino)ethyl-1H-benzimidazol-6-yl)ethyl)-1H-benzimidazol-2-yl)ethyl)carbamate] and `COc1ccc(C)cc1C(=O)N1CCC[C@H]1c1nc2ccc(C#Cc3ccc4[nH]c([C@@H]5CCCN5C(=O)[C@H]5CCCO5)nc4c3)cc2[nH]1` [Example M54.14, 5-((2S-((2S)-1-(2-methoxy-5-methylbenzoyl)-2-pyrrolidinyl)-1H-benzimidazol-6-yl)ethynyl)-2-((2S)-1-((2R)-tetrahydro-2-furanylcarbonyl)-2-pyrrolidinyl)-1H-benzimidazole] fall in the same range of pEC50: 6.00 to 7.00 for the first, 6.00 to 7.00 for the second.

Same assay, conditions: Hepatitis C virus, HCV 1b genotype replicon; class symbols

`COC(=O)N[C@@H](C(=O)N1CCC[C@H]1c1nc2c(-c3ncc(-c4ccc5[nH]c([C@@H]6CCCN6C(=O)[C@H](NC(C)=O)c6ccccc6)nc5c4)o3)cccc2[nH]1)c1ccccc1` (mixture of isomers) [Example J6.1, methyl ((1R)-2-((2S)-2-(4-(5-(2-((2S)-1-(acetamido (phenyl)acetyl)-2-pyrrolidinyl)-1H-benzimidazol-5-yl)-1,3-oxazol-2-yl)-1H-benzimidazol-2-yl)-1-pyrrolidinyl)-2-oxo-1-phenylethyl) carbamate] and `CC(=O)N[C@@H](C(=O)N1CCC[C@H]1c1nc2cc(-c3cnc(-c4cccc5[nH]c([C@@H]6CCCN6C(=O)[C@@H](c6ccccc6)N(C)C)nc45)o3)ccc2[nH]1)c1ccccc1` [Example J11.1, N-((1R)-2-((2S)-2-(5-(2-(2-((2S)-1-((2R)-2-(dimethyl-amino)-2-phenylacetyl)-2-pyrrolidinyl)-1H-benzimidazol-4-yl)-1,3-oxazol-5-yl)-1H-benzimidazol-2-yl)-1-pyrrolidinyl)-2-oxo-1-phenylethyl) acetamide] cannot be ordered by pEC50: over 8.34 for the first, over 8.34 for the second.

Compared with `C[C@@](O)(C(=O)N1CCC[C@H]1c1nc2cc(-c3cnc(-c4ccc5nc([C@@H]6CCCN6C(=O)[C@@](C)(O)c6ccccc6)[nH]c5c4)o3)ccc2[nH]1)c1ccccc1` [Example J18, (2S)-1-((2S)-2-(5-(2-(2-((2S)-1-((2S)-2-hydroxy-2-phenyl-propanoyl)-2-pyrrolidinyl)-1H-benzimidazol-6-yl)-1,3-oxazol-5-yl)-1H-benzimidazol-2-yl)-1-pyrrolidinyl)-1-oxo-2-phenyl-2-propanol], `O=C(OCc1ccccc1)N1CCC[C@H]1c1nc2cc(C#Cc3ccc4nc([C@@H]5CCCN5C(=O)OCc5ccccc5)[nH]c4c3)ccc2[nH]1` [Example M26.4, benzyl (2S)-2-(5-((2-((2S)-1-((benzyloxy)carbonyl)-2-pyrrolidinyl)-1H-benzimidazol-6-yl)ethynyl)-1H-benzimidazol-2-yl)-1-pyrrolidinecarboxylate] is lower in pEC50: over 8.34 for the first, 7.00 to 8.34 for the second.

Compared with `O=C(Cc1ccccc1)N1C[C@@H](N2CCCC2)C[C@H]1c1nc2cc(C#Cc3ccc4[nH]c([C@@H]5C[C@H](N6CCCC6)CN5C(=O)Cc5ccccc5)nc4c3)ccc2[nH]1` [Example M37.2, (3′S,5′S,3″″S,5″″S)-5′,5″-(1,2-ethynediylbis(1H-benzimidazole-5,2-diyl))bis(1′-(phenylacetyl)-1,3′-bipyrrolidine)], `O=C(Cc1ccccc1)N1C[C@@H](N2CCOCC2)C[C@H]1c1nc2cc(C#Cc3ccc4[nH]c([C@@H]5C[C@H](N6CCOCC6)CN5C(=O)Cc5ccccc5)nc4c3)ccc2[nH]1` [Example M37.3, 5,5′-(1,2-ethynediyl)bis(2-((2S,4S)-4-(4-morpholinyl)-1-(phenylacetyl)-2-pyrrolidinyl)-1H-benzimidazole)] is lower in pEC50: over 8.34 for the first, 7.00 to 8.34 for the second.

Compared with `CN(C)C(=O)C[C@H](NC(=O)OCc1ccccc1)c1nc2cc(CCc3ccc4[nH]c([C@H](CC(=O)N(C)C)NC(=O)OCc5ccccc5)nc4c3)ccc2[nH]1` [OL14, benzyl((1S)-1-(5-(2-(2-((1S)-1-(((benzyloxy)carbonyl)amino)-3-(dimethylamino)-3-oxopropyl)-1H-benzimidazol-6-yl)ethyl)-1H-benzimidazol-2-yl)-3-(dimethylamino)-3-oxopropyl)carbamate], `CC[C@H](NC(=O)OCc1ccccc1)c1nc2cc(CCc3ccc4nc([C@H](CC)NC(=O)OCc5ccccc5)[nH]c4c3)ccc2[nH]1` [OL7, benzyl ((1S)-1-(5-(2-(2-((1S)-1-(((benzyloxy)carbonyl)amino)propyl)-1H-benzimidazol-6-yl)ethyl)-1H-benzimidazol-2-yl)propyl)carbamate] is higher in pEC50: 6.00 to 7.00 for the first, 7.00 to 8.34 for the second.

First: CC(C)(C)OC(=O)CC[C@H](NC(=O)OCc1ccccc1)c1nc2cc(CCc3ccc4nc([C@H](CCC(=O)OC(C)(C)C)NC(=O)OCc5ccccc5)[nH]c4c3)ccc2[nH]1 [OL10, tert-butyl (4S)-4-(((benzyloxy)carbonyl)amino)-4-(5-(2-(2-((1S)-1-(((benzyloxy)carbonyl)amino)-4-tert-butoxy-4-oxobutyl)-1H-benzimidazol-6-yl)ethyl)-1H-benzimidazol-2-yl)butanoate]
Second: CC(=O)N1CCC[C@H]1c1nc2cc(C#Cc3ccc4[nH]c([C@@H]5CCCN5C(=O)[C@@H](c5ccccc5)N(C)C)nc4c3)ccc2[nH]1 [Example M56, (1R)-2-((2S)-2-(5-((2-((2S)-1-acetyl-2-pyrrolidinyl)-1H-benzimidazol-5-yl)ethynyl)-1H-benzimidazol-2-yl)-1-pyrrolidinyl)-N,N-dimethyl-2-oxo-1-phenyl-ethanamine]
The pEC50 of the first is lower: 6.00 to 7.00 for the first, over 8.34 for the second.

`CC(=O)N1CCC[C@H]1c1nc2ccc(C#Cc3ccc4[nH]c([C@@H]5CCCN5C(=O)[C@H]5CCCO5)nc4c3)cc2[nH]1` [Example M54.25, 5-((2-((2S)-1-acetyl-2-pyrrolidinyl)-1H-benzimidazol-6-yl)ethynyl)-2-((2S)-1-((2R)-tetrahydro-2-furanylcarbonyl)-2-pyrrolidinyl)-1H-benzimidazole] and `CC(=O)N1CCC[C@H]1c1nc2ccc(C#Cc3ccc4[nH]c([C@@H]5CCCN5C(=O)C5CC5)nc4c3)cc2[nH]1` [Example M54.30, 5-((2-((2S)-1-acetyl-2-pyrrolidinyl)-1H-benzimidazol-6-yl)ethynyl)-2-((2S)-1-(cyclopropyl-carbonyl)-2-pyrrolidinyl)-1H-benzimidazole] fall in the same range of pEC50: 6.00 to 7.00 for the first, 6.00 to 7.00 for the second.

`O=C(C1CC1)N1CCC[C@H]1c1nc2cc(C#Cc3ccc4nc([C@@H]5CCCN5C(=O)C5CC5)[nH]c4c3)ccc2[nH]1` [Example M4, 2-((2S)-1-(cyclopropylcarbonyl)-2-pyrrolidinyl)-5-((2-((2S)-1-(cyclopropylcarbonyl)-2-pyrrolidinyl)-1H-benzimidazol-6-yl)ethynyl)-1H-benzimidazole] and `O=C(c1ccoc1)N1CCC[C@H]1c1nc2ccc(C#Cc3ccc4[nH]c([C@@H]5CCCN5C(=O)[C@H]5CCCO5)nc4c3)cc2[nH]1` [Example M54.5, 5-((2-((2S)-1-(3-furoyl)-2-pyrrolidinyl)-1H-benzimidazol-6-yl)ethynyl)-2-((2S)-1-((2R)-tetrahydro-2-furanylcarbonyl)-2-pyrrolidinyl)-1H-benzimidazole] fall in the same range of pEC50: 7.00 to 8.34 for the first, 7.00 to 8.34 for the second.

`O=C(Cc1ccccc1)N1CCC[C@H]1c1nc2cc(C#Cc3ccc4[nH]c([C@@H]5CCCN5C(=O)[C@H]5CCCO5)nc4c3)ccc2[nH]1` [Example M47, 5-((2-((2S)-1-(phenylacetyl)-2-pyrrolidinyl)-1H-benzimidazol-6-yl)ethynyl)-2-((2S)-1-((2R)-tetrahydro-2-furanylcarbonyl)-2-pyrrolidinyl)-1H-benzimidazole] was tested, and the pEC50 was over 8.34.

Same assay, conditions: Hepatitis C virus, HCV 1b genotype replicon; numeric values

Point of comparison: `CCO[C@@H]1C[C@@H](c2nc3cc(C#Cc4ccc5nc([C@@H]6C[C@@H](OCC)CN6C(=O)OCc6ccccc6)[nH]c5c4)ccc3[nH]2)N(C(=O)OCc2ccccc2)C1` [Example F9, benzyl (2S,4R)-2-(5-((2-((2S,4R)-1-((benzyloxy)carbonyl)-4-ethoxy-2-pyrrolidinyl)-1H-benzimidazol-6-yl)ethynyl)-1H-benzimidazol-2-yl)-4-ethoxy-1-pyrrolidinecarboxylate], pEC50 7.70. Against it:
- COC(=O)N[C@H](C(=O)N1CCC[C@H]1c1nc2cc(-c3cnc(-c4cccc5[nH]c([C@@H]6CCCN6C(=O)[C@@H](NC(=O)OC)C(C)C)nc45)o3)ccc2[nH]1)C(C)C [Example J10, methyl ((1S)-1-(((2S)-2-(4-(5-(2-((2S)-1-((2S)-2-(methoxy-carbonyl)amino)-3-methyl-butanoyl)-2-pyrrolidinyl)-1H-benzimidazol-5-yl)-1,3-oxazol-2-yl)-1H-benzimidazol-2-yl)-1-pyrrolidinyl)carbonyl)-2-methylpropyl) carbamate] — 3.45 log units higher, 11.15
- COc1cccc2c(C(=O)N3CCC[C@H]3c3nc4cc(-c5cnc(-c6cccc7[nH]c([C@@H]8CCCN8C(=O)c8nc(Cl)cc9c(OC)cccc89)nc67)o5)ccc4[nH]3)nc(Cl)cc12 [Example J15, 3-chloro-1-(((2S)-2-(4-(5-(2-((2S)-1-((3-chloro-5-methoxy-1-isoquinolinyl)carbonyl)-2-pyrrolidinyl)-1H-benzimidazol-5-yl)-1,3-oxazol-2-yl)-1H-benzimidazol-2-yl)-1-pyrrolidinyl)carbonyl)-5-methoxy-isoquinoline] — lower, < 5.00
